For orientation: EC50 means the midpoint of the concentration-response curve.

The structures appear in SMILES notation.

The record followed here is ChEMBL document CHEMBL1152356, “Solving the confusion of gnaphaliin structure: gnaphaliin A and gnaphaliin B identified as active principles of Gnaphalium liebmannii with tracheal smooth muscle relaxant properties” (J Nat Prod, 2009).

This assay can be described thus: Vasorelaxant activity against carbachol chloride-induced contraction in guinea pig trachea treated 30 mins after carbachol chloride challenge. The format is functional, tissue-based, Cavia porcellus.

As for `Cn1c(=O)c2[nH]cnc2n(C)c1=O` [AMINOPHYLLINE], the EC50 (read-out: EC50) amounted to 534 µM.

For the compound `COc1cc(O)c2c(=O)c(O)c(-c3ccccc3)oc2c1OC` [GNAPHALIIN B], the EC50 stood at 63.05 µg/mL.

Regarding `COc1c(-c2ccccc2)oc2c(OC)c(O)cc(O)c2c1=O` [GNAPHALIIN], the 50% effective concentration (EC50) is 43.1 µg/mL.
